Values joined by “and” are separate entries in the source; they are usually repeats but may differ in a detail not shown here. Equal entries are not always repeated. “Also recorded” adds a separate entry of the source. Where two headings read alike, the source gives them in different places. Ends that are not written are not given here. Peptide text beside a SMILES is read from it.
What was measured:
QC [1] = target: T1, QC (Homo sapiens, UniProt Q16769); assay: Fluorometric QC assay with pyroglutamyl aminopeptidase as auxiliary enzyme, human QC; type: biochemical; set-up: The cDNA of the mature QC starting with codon 38 was fused in frame with the plasmid encoded 6× histidine tag; 6x histidine tag; made in house; host or cells: Pichia pastoris X33 (pPICZαB); also E. coli M15 (pQE-31); conditions: for inhibition of human QC by the peptide: H-Gln-AMC as substrate; for conversion by human QC: analyzed fluorometrically
T1 sequence (Q16769 29-361): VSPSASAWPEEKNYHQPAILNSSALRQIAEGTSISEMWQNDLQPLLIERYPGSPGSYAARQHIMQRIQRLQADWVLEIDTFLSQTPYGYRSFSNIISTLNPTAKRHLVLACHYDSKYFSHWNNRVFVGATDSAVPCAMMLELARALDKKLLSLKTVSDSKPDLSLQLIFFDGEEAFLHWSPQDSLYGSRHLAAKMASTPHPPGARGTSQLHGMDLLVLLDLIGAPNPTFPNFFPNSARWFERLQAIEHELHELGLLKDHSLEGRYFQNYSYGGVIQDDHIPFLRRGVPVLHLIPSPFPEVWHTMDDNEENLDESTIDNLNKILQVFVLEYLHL
Text: Excitation/emission wavelengths were 320/410 nm.
H-Glu(OMe)-βNA and H-Glu-βNA.

[2] = test system: Glutaminyl cyclase present in the homogenate of porcine pituitary; assay: Cyclization of Gln3-Aβ(3-11)a by QC in pituitary homogenate, MALDI-TOF; type: biochemical
Protocol: (§1) Matrix-assisted laser desorption/ionization mass spectrometry was carried out using the Hewlett-Packard G2025 LD-TOF System with a linear time of flight analyzer. […] Samples (5 μl) were mixed with equal volumes of the matrix solution. For matrix solution we used DHAP/DAHC, prepared by solving 30 mg 2′,6′-dihydroxyacetophenone (Aldrich) and 44 mg diammonium hydrogen citrate (Fluka) in 1 ml acetonitrile/0.1% TFA in water (1/1, v/v). A small volume (≈1 μl) of the matrix-analyte-mixture was transferred to a probe tip and immediately evaporated in a vacuum chamber (Hewlett-Packard G2024A sample prep accessory) to ensure rapid and homogeneous sample crystallization.

DP IV and QC = assay: Consecutive catalysis of DP IV and QC in crude pituitary homogenate with added DPIV, MALDI-TOF; type: biochemical, porcine; conditions: inhibitor added
Protocol: as §1

mammalian QC = conditions: Busby et al. 1987; cited from earlier work
QC [3] = target: T1, QC; assay: Enzyme inactivation/reactivation of human QC; type: biochemical; set-up: The cDNA of the mature QC starting with codon 38 was fused in frame with the plasmid encoded 6× histidine tag; 6x histidine tag; made in house; host or cells: Pichia pastoris X33 (pPICZαB); also E. coli M15 (pQE-31)
QC [4] = target: T1, QC; assay: Inhibitor assay, human QC catalyzed reaction (Ki determination); type: biochemical; set-up: The cDNA of the mature QC starting with codon 38 was fused in frame with the plasmid encoded 6× histidine tag; 6x histidine tag; made in house; host or cells: Pichia pastoris X33 (pPICZαB); also E. coli M15 (pQE-31)
QC [5] = target: T1, QC; assay: Discontinuous method for QC kinetic parameters; type: biochemical
QC [6] = target: T1, QC; assay: Continuous spectrophotometric assay of substrate conversion, human QC;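 note: initial rates read at 30 °C in a microplate reader, with activity quantified against an ammonia calibration curve under the same assay conditions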; type: biochemical; set-up: The cDNA of the mature QC starting with codon 38 was fused in frame with the plasmid encoded 6× histidine tag; 6x histidine tag; made in house; host or cells: Pichia pastoris X33 (pPICZαB); also E. coli M15 (pQE-31)
Protocol: The initial velocities were evaluated and the enzymatic activity was determined from a standard curve of ammonia under assay conditions. All samples were measured at 30° C., using either the [sequence]luor Plus or the Sunrise (both from TECAN) reader for microplates. Kinetic data was evaluated using GraFit software.

[7] = Protocol: H-Glu(OMe)-βNA and H-Glu-βNA. […] These fluorogenic substrates were analyzed fluorometrically, utilizing pyroglutamyl aminopeptidase as auxiliary enzyme.
QC [8] = target: T1, QC; assay: Long-term Glu1-cyclization of Aβ-derived peptides by recombinant human QC, MALDI-TOF; type: biochemical; set-up: The cDNA of the mature QC starting with codon 38 was fused in frame with the plasmid encoded 6× histidine tag; 6x histidine tag; made in house; host or cells: Pichia pastoris X33 (pPICZαB); also E. coli M15 (pQE-31); conditions: 5 mM benzimidazole
Text: At different times, samples were removed from the assay tube, peptides extracted using ZipTips (Millipore) according to the manufacturer's recommendations, mixed with matrix solution (1:1 v/v) and subsequently the mass spectra recorded.

QC [9] = target: T1, QC; assay: MALDI-TOF qualitative substrate conversion, human QC; type: biochemical; set-up: The cDNA of the mature QC starting with codon 38 was fused in frame with the plasmid encoded 6× histidine tag; 6x histidine tag; made in house; host or cells: Pichia pastoris X33 (pPICZαB); also E. coli M15 (pQE-31)
Protocol: as §1
In order to further investigate the specificity and selectivity of the QCs, peptides were synthesized comprising either a modified N-terminal glutaminyl residue or a modified amino acid in the second position. […] Due to the cyclization of the glutaminyl residue or its analog, respectively, a mass difference of the substrate and the product of catalysis is detected. In cases of ammonia liberation of one mole per mole of substrate, the conversion was also analyzed quantitatively using the spectrophotometric assay.

QC [10] = target: T1, QC; assay: LC/MS analysis of QC-catalyzed pyroglutamate formation; type: biochemical
DP IV (porcine kidney) = target: T2, DP IV (porcine kidney) (Sus scrofa, UniProt P22411); assay: DP IV cleavage of Gln3-Aβ(1-11)a, MALDI-TOF; type: biochemical
T2 construct: purified DP IV (porcine kidney); from tissue; host or cells: porcine kidney
T2 sequence (P22411 whole entry): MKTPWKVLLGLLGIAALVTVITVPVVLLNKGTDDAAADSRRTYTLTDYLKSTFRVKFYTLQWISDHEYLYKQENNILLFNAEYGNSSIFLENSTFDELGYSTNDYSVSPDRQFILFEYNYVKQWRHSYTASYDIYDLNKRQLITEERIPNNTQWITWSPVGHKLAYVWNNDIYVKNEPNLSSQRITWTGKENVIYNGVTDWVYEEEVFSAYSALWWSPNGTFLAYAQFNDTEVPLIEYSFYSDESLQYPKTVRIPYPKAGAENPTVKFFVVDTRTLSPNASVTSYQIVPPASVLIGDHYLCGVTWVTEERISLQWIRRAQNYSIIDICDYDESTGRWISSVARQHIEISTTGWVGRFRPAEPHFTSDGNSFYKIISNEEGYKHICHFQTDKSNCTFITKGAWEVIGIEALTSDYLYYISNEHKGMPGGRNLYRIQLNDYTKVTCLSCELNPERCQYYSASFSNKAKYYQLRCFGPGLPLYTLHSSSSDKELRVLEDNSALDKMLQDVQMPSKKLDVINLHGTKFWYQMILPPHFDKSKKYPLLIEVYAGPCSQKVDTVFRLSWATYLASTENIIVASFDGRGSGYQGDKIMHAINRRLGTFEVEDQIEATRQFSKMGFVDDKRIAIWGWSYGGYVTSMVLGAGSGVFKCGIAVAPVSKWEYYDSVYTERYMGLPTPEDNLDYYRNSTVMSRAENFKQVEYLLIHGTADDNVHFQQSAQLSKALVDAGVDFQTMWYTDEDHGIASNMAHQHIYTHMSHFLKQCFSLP
Protocol: as §1

[11] = Solubility in aqueous solution

H-EFKRLA-NH2 [H-Glu-Phe-Lys-Arg-Leu-Ala-NH2]
inhibition of human QC by the peptide (QC [1]): not inhibited

c1cnc2c(c1)ccc1cccnc12 [1,10-phenanthroline]
inhibition of formation of [pGlu3]Aβ(3-11)a from Gln3-Aβ(3-11)a [2]: inhibited; also recorded: inhibition of the formation | [pGlu3]Aβ(3-11)a formation from Gln3-Aβ(1-11)a in presence of DP IV and QC (DP IV and QC): inhibition | inhibition of mammalian QC (mammalian QC): Inhibition of a mammalian QC was only detected | inhibition of human QC catalyzed substrate cyclization by chelators (QC [3]): inhibited | inactivation of human QC after extensive dialysis (QC [3]; 5 mM inactivating agent): almost completely inactivated

c1ccc(-n2ccnc2)cc1 [1-phenylimidazole]
inhibition of human QC (QC [4]): inactive under the experimental conditions

reduced 6-methylpterin
inhibition of mammalian QC (mammalian QC): Inhibition of a mammalian QC was only detected

NC(=O)CC[C@H](NC(=O)[C@@H](N)CCC(N)=O)C(=O)O [H-Gln-Gln-OH] (H-Gln-Gln-OH)
Km (QC [5]): 175 ± 18 µM | kcat (QC [5]; discontinuous method): 21.3 ± 0.6 s⁻¹ | Km (QC [6]): 148 ± 5 µM | Ki* (QC [6]; Table 6, for substrate inhibition, n.i. = no inhibition): n.i. | kcat (QC [6]; Table 6, n.r. = not reactive): 20.7 ± 0.2 s⁻¹

COC(=O)CC[C@H](N)C(=O)Nc1ccc2ccccc2c1 [H-Glu(OMe)-βNA, H-Glu(OMe)-β-naphthylamide]
stability in Tris and Tricine buffers (non-enzymatically catalyzed cyclization) [7]: remarkable instability | conversion by human QC (QC [1]): Neither of these compounds were converted

Cn1cnc(CCN)c1 [1-methyl-4-(β-aminoethyl)-imidazole]
inhibition of human QC (QC [4]): complete loss of inhibitory activity | Ki value (QC [4]; Table 4, n.i. = no inhibition): n.i.

c1ccc2[nH]cnc2c1 [benzimidazole]
suppression of [pGlu3]Aβ(3-11)a / [pGlu3]Aβ(3-21)a formation (QC [8]): suppressed | suppression of [pGlu3]Aβ(3-11)a / [pGlu3]Aβ(3-21)a formation (QC [8]; listed as Benzimidazole): suppressing the formation

N[C@@H](CCC(=O)O)C(=O)Nc1ccc2ccccc2c1 [Glu-βNA, H-Glu-βNA]
limiting rate constant for nonenzymatic turnover (estimate, no product formed) ([7]; pH 6.0, 4 weeks): ≤ 1e-09 s⁻¹ | conversion by human QC (QC [1]): Neither of these compounds were converted

H-Gln-Lys(Gln)-Arg-Leu-Ala-NH2 (H-QK(Gln)RLA-NH2; SMILES CC(C)C[C@H](NC(=O)[C@H](CCCNC(=N)N)NC(=O)[C@H](CCCCNC(=O)[C@@H](N)CCC(N)=O)NC(=O)[C@@H](N)CCC(N)=O)C(=O)N[C@@H](C)C(N)=O) [H-Gin-Lys(Gln)-Arg-Leu-Ala-NH2]
conversion by human QC (QC [9]): converted

[Gln^5]-substance P(5-11): substance P fragment 5-11 with N-terminal Gln^5 after cleavage of residues 1-4 (QQFFGLM; ends and bridges not checked)
formation of N-terminal pyroglutamate catalyzed by QC (QC [10]): transformed by QC

COC(=O)CC[C@H](N)C(=O)N[C@@H](Cc1ccccc1)C(=O)N[C@@H](CCCCN)C(=O)N[C@@H](CCCNC(=N)N)C(=O)N[C@@H](CC(C)C)C(=O)N[C@@H](C)C(N)=O [H-Glu(OMe)-Phe-Lys-Arg-Leu-Ala-NH2] (H-E(OMe)FKRLA-NH2)
inhibition of human QC by the peptide (QC [1]): not inhibited

CC(C)[C@H](N)C(=O)N1CCCC1 [Val-Pyrr, Val-Pyrrolidide]
prevention of DP IV cleavage of Gln3-Aβ(1-11)a (DP IV (porcine kidney)): completely prevented | prevention of DP IV cleavage of Gln3-Aβ(1-11)a (DP IV (porcine kidney); listed as Val-Pyrrolidide): prevention of the cleavage | [pGlu3]Aβ(3-11)a formation from Gln3-Aβ(1-11)a in presence of DP IV and QC (DP IV and QC): reduction

O=C(O)CN(CCN(CC(=O)O)CC(=O)O)CC(=O)O [EDTA]
inhibition of mammalian QC (mammalian QC): did not inhibit | inhibition of human QC catalyzed substrate cyclization by chelators (QC [3]): did not show remarkable inhibition

H-Gln(NMe)-Phe-Lys-Ala-Glu-NH2 (H-QFKAE-NH2; not fully specified (residue 1); printed as H-Gln(NMe)-Phe-Lys-Ala-Glu-NH2)
conversion by human QC (QC [9]): not recognized by human QC; also recorded: No substrate conversion was observed | inhibition of human QC by the peptide (QC [1]): not detected

O=C1CNC(=S)N1CCCn1ccnc1 [3-[3-(1H-imidazol-1-yl)propyl]-2-thioxoimidazolidin-4-one]
Ki (QC [4]; 30° C., 0.05 M Tris-HCl pH 8.0, 5 mM EDTA): 810 ± 10 nM

NC(=O)CC[C@H](N)C(=O)Nc1ccc2ccccc2c1 [H-Gln-βNA]
first-order rate constant of nonenzymatic pGlu-formation ([7]; pH 6.0, followed for 4 weeks): 1.2*10^−7 s^−1 | kcat (QC [6]): 20.6 ± 0.5 s⁻¹ | kcat (QC [6]; pH 8): 21.7 ± 0.5 s⁻¹ and 20.0 ± 0.4 s⁻¹

QFRHDSGYE-NH2 [[Gln^3]Aβ3-11a]
solubility in aqueous solution [11]: better solubility

From US7462599B2, “Use of effectors of glutaminyl and glutamate cyclases” (Probiodrug AG, priority 2003, dated 2008)
